Source: patent US20070134660A1, “Methods for identifying modulators of kinesin activity” (ROSETTA INPHARMATICS LLC, priority 2003, published 2007)

Tested on: HeLa cells
Experiment: alamarBlue cell growth assay, candidate KIF14 modulators in HeLa cells
Assay type: cell-based, human
Settings: 72 hours; for IC50: Homo sapiens, HeLa, compounds 1 and 2: submaximal inhibition
Description: alamarBlue™ Assay for Cell Growth: The alamarBlue™ assay is a measure of cellular respiration and is used as a measure of live cell number. The internal environment of the proliferating cell is more reduced than that of non-proliferating cells. Specifically, the ratios of NADPH/NADP, FADH/FAD, FMNH/FMN, and NADH/NAF increase during proliferation. alamarBlue™ can be reduced by these metabolic intermediates and, therefore, can be used to monitor cell proliferation.
HeLa cells were plated at a density of 2000/cells per well in 10% DMEM in a 96-well plate (Costar, Cat. No. 3606) 20 hours prior to treatment with a KIF14 inhibitory compound in a series of dilutions (20 microliters of 11-fold concentrated solution of the compound added to 200 microliters of media). The cells were incubated at 37° C. for 72 hours prior to replacement of 100 microliters per well of the media with 10% (vol/vol) alamarBlue™ reagent. After incubation for 2 hours at 37° C., the plates were read on a spectrofluorimeter SpectroMax Gemini (excitation 544 nm, emission 590 nm). The background value (averaged from wells with no cells) was subtracted from each reading.

Row | Structure (SMILES) | IC50 | Growth Inhibition in HeLa Cells ([Compound] 19.5 nm) | Growth Inhibition in HeLa Cells ([Compound] 39.1 nm) | Growth Inhibition in HeLa Cells ([Compound] 78.1 nm) | Growth Inhibition in HeLa Cells ([Compound] 156.2 nm) | Growth Inhibition in HeLa Cells ([Compound] 312.5 nm) | Growth Inhibition in HeLa Cells ([Compound] 625 nm) | Growth Inhibition in HeLa Cells ([Compound] 1250 nm) | Growth Inhibition in HeLa Cells ([Compound] 2500 nm) | Growth Inhibition in HeLa Cells ([Compound] 5000 nm) | Growth Inhibition in HeLa Cells ([Compound] 10000 nm)
1 | NC(=S)N/N=C\c1ccc(-c2ccccc2)cc1 [compound 1, 1,1′-biphenyl-4-carbaldehyde thiosemicarbazone] | 1 µM | −3.58% | −4.74% | −2.50% | 5.29% | 10.32% | 12.76% | 19.73% | 51.68% | 48.18% | 40.98%
2 | NC(=S)N/N=C/c1ccc(C2CCCCC2)cc1 [compound 3, 4-cyclohexylbenzaldehyde thiosemicarbazone] | 2.8 µM | 8.97% | 5.97% | 8.16% | 6.91% | 8.88% | 12.32% | 7.53% | 44.36% | 83.84% | 95.02%
